Assay results reported in patent US9006246B2, “Tetrahydrocarboline derivative” (Ono Pharmaceutical Co., Ltd., priority 2010, dated 2015).
Counter-ions that a name gives are not always drawn.

These compounds were tested against human ENPP2 (Homo sapiens (Human), UniProt Q13822) (assay: Measurement of human ENPP2 inhibitory activity). Conditions: 1 μM test compound; 16:0-LPC substrate, 37° C., 24 hours; read-out: ENPP2 inhibition rate(%) (1 μM).
Format: biochemical
Description: 10 μL of a test compound solution (10% dimethyl sulfoxide) at each concentration and 40 μL of a 5 μg/mL human ENPP2 solution (buffer A: 100 mmol/L Tris-HCl (pH 9.0), 500 mmol/L NaCl, 5 mmol/L MgCl2, 0.05% Triton X-100) were mixed, 50 μL of a 2 mmol/L 16:0-lysophosphatidylcholine (LPC) solution (buffer A) was further added to react at 37° C. for 24 hours. Subsequently, to 10 μL of the reaction solution was added 90 μL of a measurement buffer (0.5 mmol/L aminoantipyrine, 0.3 mmol/L N-ethyl-N-(2-hydroxy-3-sulfopropyl)-3-methylaniline, 1 U/mL peroxidase, 3 U/mL choline oxidase, 100 mmol/L Tris-HCl (pH 8.5), 5 mmol/L CaCl2) to react at 37° C. for 20 minutes, and spectrophotometric determination was performed at 555 nm.
Using a standard curve, a choline production amount (enzyme activity) in each test compound was calculated, and the inhibitory activity rate of each test compound was calculated, wherein the enzyme activity in a positive control to which a test compound is not added, was a 0% inhibition rate, and the enzyme activity in a negative control to which a test compound and human ENPP2 are not added, were 100% inhibition. Further, concerning the present compounds shown in Table 3, an IC50 value was calculated from inhibitory activity rate at each concentration.

| inhibition at 1 µM [%] | Compound |
| --- | --- |
| 96.2 | COc1cc(CC(=O)N2CCc3c(n(Cc4cc(F)cc(F)c4)c4ncccc34)C2)ccc1C(=O)O [Example 51(23), 4-{2-[9-(3,5-difluorobenzyl)-5,6,8,9-tetrahydro-7H-pyrido[4′,3′:4,5]pyrrolo[2,3-b]pyridin-7-yl]-2-oxoethyl}-2-methoxybenzoic acid] |
| 99.8 | O=C(CC12CCC(C(=O)O)(CC1)CC2)N1CCc2c(n(Cc3cc(F)c(F)cc3F)c3ncccc23)C1 [Example 31(129), 4-{2-oxo-2-[9-(2,4,5-trifluorobenzyl)-5,6,8,9-tetrahydro-7H-pyrido[4′,3′:4,5]pyrrolo[2,3-b]pyridin-7-yl]ethyl}bicyclo[2.2.2]octane-1-carboxylic acid] |
| 84.1 | CC(C)(CCC(=O)N1CCc2c(n(Cc3ccccc3)c3ccccc23)C1)CC(=O)O [Example 15, 6-(9-benzyl-1,3,4,9-tetrahydro-2H-beta-carbolin-2-yl)-3,3-dimethyl-6-oxohexanoic acid] |
| 69.3 | O=C(O)CCCCC(=O)N1CCc2c(n(Cc3cccs3)c3ncccc23)C1 [Example 9(59), 6-oxo-6-[9-(2-thienylmethyl)-5,6,8,9-tetrahydro-7H-pyrido[4′,3′:4,5]pyrrolo[2,3-b]pyridin-7-yl]hexanoic acid] |
| 98.7 | O=C(CC12CCC(C(=O)O)(CC1)C2)N1CCc2c(n(Cc3cccc(F)c3)c3ncccc23)C1 [Example 31(181), 4-{2-[9-(3-fluorobenzyl)-5,6,8,9-tetrahydro-7H-pyrido[4′,3′:4,5]pyrrolo[2,3-b]pyridin-7-yl]-2-oxoethyl}bicyclo[2.2.1]heptane-1-carboxylic acid] |
| 98.9 | O=C(CC12CCC(C(=O)O)(CC1)C2)N1CCc2c(n(Cc3ccc(F)cc3F)c3ncccc23)C1 [Example 31(182), 4-{2-[9-(2,4-difluorobenzyl)-5,6,8,9-tetrahydro-7H-pyrido[4′,3′:4,5]pyrrolo[2,3-b]pyridin-7-yl]-2-oxoethyl}bicyclo[2.2.1]heptane-1-carboxylic acid] |
| 89.6 | CC(C)(OCC(=O)N1CCc2c(n(Cc3cccc(F)c3)c3ncccc23)C1)C(=O)O [Example 18(1), 2-{2-[9-(3-fluorobenzyl)-5,6,8,9-tetrahydro-7H-pyrido[4′,3′:4,5]pyrrolo[2,3-b]pyridin-7-yl]-2-oxoethoxy}-2-methylpropanoic acid] |
| 99.5 | CC1(C)[C@@H](CC(=O)N2CCc3c(n(Cc4ccc(Cl)cc4F)c4ncccc34)C2)CC[C@@]1(C)C(=O)O [Example 31(160), (1R,3R)-3-{2-[9-(4-chloro-2-fluorobenzyl)-5,6,8,9-tetrahydro-7H-pyrido[4′,3′:4,5]pyrrolo[2,3-b]pyridin-7-yl]-2-oxoethyl}-1,2,2-trimethylcyclopentanecarboxylic acid] |
| 95.1 | O=C(O)CCCCCC(=O)N1CCc2c(n(CCCc3ccc(F)cc3)c3ccccc23)C1 [Example 3(19), 7-{9-[3-(4-fluorophenyl)propyl]-1,3,4,9-tetrahydro-2H-beta-carbolin-2-yl}-7-oxoheptanoic acid] |
| 67.7 | COC(=O)CCCCC(=O)N1CCc2c(n(CCCc3ccccc3)c3ccccc23)C1 [Example 2, methyl 6-oxo-6-[9-(3-phenylpropyl)-1,3,4,9-tetrahydro-2H-beta-carbolin-2-yl]hexanoate] |
| 98.8 | O=C(CC12CCC(C(=O)O)(CC1)C2)N1CCc2c(n(Cc3ccc(F)cc3)c3ncccc23)C1 [Example 31(188), 4-{2-[9-(4-fluorobenzyl)-5,6,8,9-tetrahydro-7H-pyrido[4′,3′:4,5]pyrrolo[2,3-b]pyridin-7-yl]-2-oxoethyl}bicyclo[2.2.1]heptane-1-carboxylic acid] |
| 97.5 | COc1cc(CC(=O)N2CCc3c(n(Cc4cc(F)c(F)cc4F)c4ncccc34)C2)ccc1C(=O)O [Example 51(24), 2-methoxy-4-{2-oxo-2-[9-(2,4,5-trifluorobenzyl)-5,6,8,9-tetrahydro-7H-pyrido[4′,3′:4,5]pyrrolo[2,3-b]pyridin-7-yl]ethyl}benzoic acid] |
| 99.5 | CC1(C)[C@@H](CC(=O)N2CCc3c(n(Cc4ccc(F)cc4)c4ncccc34)C2)CC[C@@]1(C)C(=O)O [Example 31(162), (1R,3R)-3-{2-[9-(4-fluorobenzyl)-5,6,8,9-tetrahydro-7H-pyrido[4′,3′:4,5]pyrrolo[2,3-b]pyridin-7-yl]-2-oxoethyl}-1,2,2-trimethylcyclopentanecarboxylic acid] |
| 96.2 | CC1CN(C(=O)CCCC(C)(C)C(=O)O)Cc2c1c1cccnc1n2Cc1cccc(F)c1 (centres unmarked) [Example 23, 6-[9-(3-fluorobenzyl)-5-methyl-5,6,8,9-tetrahydro-7H-pyrido[4′,3′:4,5]pyrrolo[2,3-b]pyridin-7-yl]-2,2-dimethyl-6-oxohexanoic acid] |
| 98.2 | O=C(C[C@H]1CC[C@H](C(=O)O)CC1)N1CCc2c(n(Cc3ccc(F)cc3F)c3ncccc23)C1 [Example 31(32), trans-4-{2-[9-(2,4-difluorobenzyl)-5,6,8,9-tetrahydro-7H-pyrido[4′,3′:4,5]pyrrolo[2,3-b]pyridin-7-yl]-2-oxoethyl}cyclohexanecarboxylic acid] |
| 98.6 | O=C(C[C@H]1CC[C@H](C(=O)O)CC1)N1CCc2c(n(Cc3ccc(Cl)cc3)c3ncccc23)C1 [Example 31(34), trans-4-{2-[9-(4-chlorobenzyl)-5,6,8,9-tetrahydro-7H-pyrido[4′,3′:4,5]pyrrolo[2,3-b]pyridin-7-yl]-2-oxoethyl}cyclohexanecarboxylic acid] |
| 91.9 | CC(C)(CCCC(=O)N1CCc2c(n(Cc3ccccc3)c3ccccc23)C1)C(=O)O [Example 12(27), 6-(9-benzyl-1,3,4,9-tetrahydro-2H-beta-carbolin-2-yl)-2,2-dimethyl-6-oxohexanoic acid] |

Same assay, conditions: 16:0-LPC substrate, 37° C., 24 hours

| IC50 [nM] | Compound |
| --- | --- |
| 83 | CC(C)(CNCC(=O)N1CCc2c(n(Cc3cccc(F)c3)c3ncccc23)C1)C(=O)O [Example 20, 3-({2-[9-(3-fluorobenzyl)-5,6,8,9-tetrahydro-7H-pyrido[4′,3′:4,5]pyrrolo[2,3-b]pyridin-7-yl]-2-oxoethyl}amino)-2,2-dimethylpropanoic acid hydrochloride] |
| 7.8 | Cc1cc(CC(=O)N2CCc3c(n(Cc4csc(Cl)c4)c4ncccc34)C2)ccc1C(=O)O [Example 51(48), 4-(2-{9-[(5-chloro-3-thienyl)methyl]-5,6,8,9-tetrahydro-7H-pyrido[4′,3′:4,5]pyrrolo[2,3-b]pyridin-7-yl}-2-oxoethyl)-2-methylbenzoic acid] |
| 11 | O=C(CC12CCC(C(=O)O)(CC1)CC2)N1CCc2c(n(Cc3ccc(Cl)cc3)c3ncccc23)C1 [Example 31(140), 4-{2-[9-(4-chlorobenzyl)-5,6,8,9-tetrahydro-7H-pyrido[4′,3′:4,5]pyrrolo[2,3-b]pyridin-7-yl]-2-oxoethyl}bicyclo[2.2.2]octane-1-carboxylic acid] |
| 26 | C[C@]1(C(=O)O)CC[C@H](CC(=O)N2CCc3c(n(Cc4ccc(F)cc4)c4ncccc34)C2)CC1 [Example 48(8), trans-4-{2-[9-(4-fluorobenzyl)-5,6,8,9-tetrahydro-7H-pyrido[4′,3′:4,5]pyrrolo[2,3-b]pyridin-7-yl]-2-oxoethyl}-1-methylcyclohexanecarboxylic acid] |
| 25 | C[C@]1(C(=O)O)CC[C@H](CC(=O)N2CCc3c(n(Cc4ccc(Cl)cc4)c4ncccc34)C2)CC1 [Example 48(9), trans-4-{2-[9-(4-chlorobenzyl)-5,6,8,9-tetrahydro-7H-pyrido[4′,3′:4,5]pyrrolo[2,3-b]pyridin-7-yl]-2-oxoethyl}-1-methylcyclohexanecarboxylic acid] |
| 13 | CC1(C)[C@@H](CC(=O)N2CCc3c(n(Cc4ccc(F)c(Cl)c4)c4ncccc34)C2)CC[C@@]1(C)C(=O)O [Example 31(169), (1R,3R)-3-{2-[9-(3-chloro-4-fluorobenzyl)-5,6,8,9-tetrahydro-7H-pyrido[4′,3′:4,5]pyrrolo[2,3-b]pyridin-7-yl]-2-oxoethyl}-1,2,2-trimethylcyclopentanecarboxylic acid] |
| 16 | O=C(O)CCCCC(=O)N1CCc2c(n(CCC3CCCCC3)c3ncccc23)C1 [Example 9(2), 6-[9-(2-cyclohexylethyl)-5,6,8,9-tetrahydro-7H-pyrido[4′,3′:4,5]pyrrolo[2,3-b]pyridin-7-yl]-6-oxohexanoic acid] |
| 11 | O=C(CC12CCC(C(=O)O)(CC1)CC2)N1CCc2c(n(Cc3cccc(F)c3)c3ncccc23)C1 [Example 31(127), 4-{2-[9-(3-fluorobenzyl)-5,6,8,9-tetrahydro-7H-pyrido[4′,3′:4,5]pyrrolo[2,3-b]pyridin-7-yl]-2-oxoethyl}bicyclo[2.2.2]octane-1-carboxylic acid] |

| Compound | IC50 [nM] |
| --- | --- |
| C[C@@H]1CN(CC(=O)N2CCc3c(n(Cc4ccc(Cl)s4)c4ccccc34)C2)C[C@H](C)N1CC(=O)O [Example 35(122), rel-[(2R,6S)-4-(2-{9-[(5-chloro-2-thienyl)methyl]-1,3,4,9-tetrahydro-2H-beta-carbolin-2-yl}-2-oxoethyl)-2,6-dimethyl-1-piperazinyl]acetic acid dihydrochloride] | 35 |
